In patent US8105431B2, “Subphthalocyanine derivative having phosphorus derivative as axially substituted group, method for manufacturing the same and optical film using the same” (Orient Chemical Industries, Ltd., priority 2008, dated 2012):

Key:
Type in all cases: physicochemical
[1] = Absorption measurement in chloroform (maximum absorption wavelength, molar absorbance coefficient); conditions: for Molar Absorbance Coefficient: 1 cm cell
Procedure: Measuring methods of the molar absorbance coefficient of the subphthalocyanine derivatives having the phosphorus derivative-substituted group obtained in the Examples 1-9 and the halo boron subphthalocyanine obtained in Synthesis Examples 1-4 were carried out as follows.
10.0 mg of the obtained compound was completely dissolved in 100 ml of chloroform. Then 10 ml of the solution was diluted with 100 ml of chloroform. Thus the absorbance of the obtained solution was measured using spectrophotometer (UV-1700 available from Shimadzu Corporation). Molar absorbance coefficient • was calculated using the following equation: A=•×C×l (A: absorbance, C: concentration (mol/L), l: light path (cm)) In the measurement, light pass length of the cell is 1 cm long.

[2] = Solubility to methyl ethyl ketone; conditions: for solubility (in words): compared with the halo boron intermediate compounds
[3] = Dissolution in coating solution for film manufacture; conditions: 0.5 parts in 68.5 parts cyclohexanone and 30 parts methyl ethyl ketone with 1.0 parts polycarbonate
Procedure: 0.5 parts of Compound 1 obtained in Example 1 and 1.0 parts of polycarbonate were added into 68.5 parts of cyclohexanone and 30 parts of methyl ethyl ketone and stirred and dissolved to obtain a coating solution.
A film was manufactured in the same way as in Example 10 except that Intermediate Compound 1 obtained in Synthesis Example 1 was used in place of Compound 1 in Example 10.

Row | Compound | Maximum Absorption Wavelength [1] [nm] | Molar Absorbance Coefficient [1] | Solubility ([2]; Solvent: Methyl Ethyl Ketone) [wt %] | solubility (in words) ([2]; methyl ethyl ketone) | Solubility ([2]; methyl ethyl ketone) | dissolution in coating liquid [3]
1 | O=P(OB1n2c3c4ccccc4c2/N=C2N=C(/N=c4/c5ccccc5c(n41)=N3)c1ccccc1\2)(c1ccccc1)c1ccccc1 [Compound 1, SubPcBOPOPh2] | 564.0 | 7.69 ×10^−4 Lmol^−1cm^−1 | 0.44 | remarkably improved | – | –
2 | O=P(OB1n2c3c4ccccc4c2/N=C2N=C(/N=c4/c5ccccc5c(n41)=N3)c1ccccc1\2)(Oc1ccccc1)Oc1ccccc1 [Compound 3, SubPcBOPO(OPh)2] | 564.5 | 6.96 ×10^−4 Lmol^−1cm^−1 | 0.34 | remarkably improved | – | –
3 | CCCCOP(=O)(OCCCC)OB1n2c3c4ccccc4c2/N=C2N=C(/N=c4/c5ccccc5c(n41)=N3)c1ccccc1\2 [Compound 4, SubPcBOPO(OBu)2] | 562.5 | 7.78 ×10^−4 Lmol^−1cm^−1 | >10 | remarkably improved | more than 10 % by weight | –
4 | ClB1n2c3c4ccccc4c2/N=C2N=C(/N=c4/c5ccccc5c(n41)=N3)c1ccccc1\2 [Intermediate Compound 1, SubPcBCl, reference compound] | 565.0 | 5.10 ×10^−4 Lmol^−1cm^−1 | 0.003 | – | – | could not be fully dissolved
5 | (PhS)3SubPcBCl [Intermediate Compound 11, reference compound] | 586.0 | 7.58 ×10^−4 Lmol^−1cm^−1 | – | – | – | –
6 | (PhS)3SubPcBOPO(OBu)2 [Compound 26] | 584.0 | 9.95 ×10^−4 Lmol^−1cm^−1 | >10 | – | – | –
7 | (PhS)3SubPcBOPOPh2 [Compound 24] | 584.5 | 7.24 ×10^−4 Lmol^−1cm^−1 | >10 | – | – | –
8 | (i-C5H11S)3 SubPcBCl [Intermediate Compound 6, reference compound] | 587.5 | 5.82 ×10^−4 Lmol^−1cm^−1 | – | – | – | –
9 | (i-C5H11S)3SubPcBOPO(OPh)2 [Compound 13] | 586.5 | 8.20 ×10^−4 Lmol^−1cm^−1 | – | – | – | –
10 | (i-C5H11S)3SubPcBOPOPh2 [Compound 11] | 586.0 | 7.12 ×10^−4 Lmol^−1cm^−1 | >10 | – | – | –
11 | (t-Bu)3 SubPcBCl [Intermediate Compound 2, reference compound] | – | – | >10 | – | – | –
12 | (t-Bu)3SubPcBOPO(OBu)2 [Compound 7] | 568.0 | 7.62 ×10^−4 Lmol^−1cm^−1 | >10 | – | – | –
13 | (t-Bu)3SubPcBOPOPh2 [Compound 5] | 570.5 | 8.74 ×10^−4 Lmol^−1cm^−1 | >10 | – | – | –
